Data taken from PMC5766609 (Scientific Reports, 2018).
Read-outs that look alike come from different tables or passages of the source. Starred links: 1 amine or outer side, 2 acyl side, 3 side chain; linkers in the order of their positions; H or OH if unused. Non-standard residues stand in square brackets, D forms with d. Residues, ends and D or L forms follow the SMILES beside them. Groups on a side chain read outwards from the residue. *: point of attachment. γGlu = O=C(O)[C@H](CCC(=O)[*:2])N[*:1]; Palmitoyl = CCCCCCCCCCCCCCCC(=O)*

What was measured:
[1] = biological target: T1, human glucagon receptor (GCGR) (Homo sapiens, UniProt P47871); assay: cAMP assay on CHO-JumpIn cells stably transfected with human glucagon receptor (HitHunter cAMP); assay type: cell-based; conditions: for EC50: cAMP accumulation, CHO-JumpIn cells with human GCGR, value ± spread; for activation of the receptors (in words): both receptors (GCGR and GLP1R) not activated;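 on all read-outs here: peptides tested as 4-fold serial dilutions starting from a 2 µM solution, cells exposed 1 hr at RT in darkness, cAMP quantified against a cAMP standard curve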
T1 construct: expressed in transfected cells; host or cells: CHO-JumpIn cells, stably transfected
T1 sequence (P47871 26-477): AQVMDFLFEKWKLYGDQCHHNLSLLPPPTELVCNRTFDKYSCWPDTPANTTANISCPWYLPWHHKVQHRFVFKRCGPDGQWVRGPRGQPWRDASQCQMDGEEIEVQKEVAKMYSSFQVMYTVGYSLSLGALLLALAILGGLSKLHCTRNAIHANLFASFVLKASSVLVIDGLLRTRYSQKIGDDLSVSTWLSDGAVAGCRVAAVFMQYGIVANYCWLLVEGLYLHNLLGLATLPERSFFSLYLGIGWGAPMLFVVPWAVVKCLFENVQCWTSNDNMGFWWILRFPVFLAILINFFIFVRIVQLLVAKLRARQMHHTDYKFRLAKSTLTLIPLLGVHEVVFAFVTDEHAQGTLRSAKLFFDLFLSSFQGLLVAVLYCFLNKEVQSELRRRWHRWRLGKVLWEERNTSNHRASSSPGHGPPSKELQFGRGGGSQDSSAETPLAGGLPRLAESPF

[2] = biological target: T2, human GLP-1 receptor (GLP1R) (Homo sapiens, UniProt P43220); assay: cAMP assay on CHO-JumpIn cells stably transfected with human GLP-1 receptor (HitHunter cAMP); assay type: cell-based; conditions: value ± spread;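 further: peptides tested as 4-fold serial dilution series, cells exposed 1 hr at RT in the dark, cAMP quantified against a cAMP standard calibration curve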
T2 construct: expressed in transfected cells; host or cells: CHO-JumpIn cells, stably transfected
T2 sequence (P43220 24-463): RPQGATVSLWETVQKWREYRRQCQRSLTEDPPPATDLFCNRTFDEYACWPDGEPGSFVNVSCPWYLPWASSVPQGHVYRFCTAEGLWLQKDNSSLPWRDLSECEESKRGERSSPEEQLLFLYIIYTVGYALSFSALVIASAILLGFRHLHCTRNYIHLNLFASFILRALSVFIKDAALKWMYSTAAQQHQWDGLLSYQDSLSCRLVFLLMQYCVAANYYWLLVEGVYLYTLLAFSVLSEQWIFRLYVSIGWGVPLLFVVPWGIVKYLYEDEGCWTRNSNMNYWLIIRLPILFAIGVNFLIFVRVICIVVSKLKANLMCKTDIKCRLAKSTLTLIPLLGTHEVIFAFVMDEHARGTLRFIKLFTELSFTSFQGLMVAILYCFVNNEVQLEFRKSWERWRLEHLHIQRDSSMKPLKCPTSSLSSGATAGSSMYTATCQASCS

[3] = Table 2, buffer PBS, 0.1% BSA, 100 μM RO 20-1724, 20% serum, 1 hr at RT, read-out: EC50 GCGR
[4] = Table 2, cAMP accumulation, buffer PBS, 0.1% BSA, 100 μM RO 20-1724, 20% serum, 1 hr at RT, read-out: EC50 GLP1R

| EC50 [1, 3] [nM] | EC50 [2, 4] [nM] | activation of the receptors (in words) [1] | EC50 ([1]; Table 3, engineered versus parent peptides, read-out: EC50 hGCGR) [nM] | EC50 ([2]; Table 3, engineered versus parent peptides, cAMP accumulation, read-out: EC50 hGLP1) [nM] | Structure (SMILES) |
| --- | --- | --- | --- | --- | --- |
| 4.18 ± 1.13 | 14.8 ± 11.4 |  |  |  | CSCC[C@H](NC(=O)[C@H](CC(C)C)NC(=O)[C@H](Cc1c[nH]c2ccccc12)NC(=O)[C@H](CCC(N)=O)NC(=O)[C@@H](NC(=O)[C@H](Cc1ccccc1)NC(=O)[C@H](CC(=O)O)NC(=O)[C@H](CCC(N)=O)NC(=O)[C@H](C)NC(=O)[C@H](CCCNC(=N)N)NC(=O)[C@H](CCCNC(=N)N)NC(=O)[C@H](CO)NC(=O)[C@H](CC(=O)O)NC(=O)[C@H](CC(C)C)NC(=O)[C@H](Cc1ccc(O)cc1)NC(=O)[C@H](CCCCN)NC(=O)[C@H](CO)NC(=O)[C@H](Cc1ccc(O)cc1)NC(=O)[C@H](CC(=O)O)NC(=O)[C@H](CO)NC(=O)[C@@H](NC(=O)[C@H](Cc1ccccc1)NC(=O)[C@@H](NC(=O)[C@H](Cc1ccccc1)NC(=O)[C@H](CCC(N)=O)NC(=O)CNC(=O)[C@H](CC(C)C)NC(=O)[C@H](C)NC(=O)[C@@H](N)CCCCN)[C@@H](C)O)[C@@H](C)O)C(C)C)C(=O)N[C@@H](CC(N)=O)C(=O)N[C@H](C(N)=O)[C@@H](C)O [Peptide 21] (H-KALGQFTFTSDYSKYLDSRRAQDFVQWLMNT-NH2) |
| 0.026 ± 0.001 | 0.018 ± 0.001 |  |  |  | CC(C)C[C@H](NC(=O)[C@H](Cc1ccc(O)cc1)NC(=O)[C@H](CCCCN)NC(=O)[C@H](CO)NC(=O)[C@H](Cc1ccc(O)cc1)NC(=O)[C@H](CC(=O)O)NC(=O)[C@H](CO)NC(=O)[C@@H](NC(=O)[C@H](Cc1ccccc1)NC(=O)[C@@H](NC(=O)CNC(=O)[C@H](CCC(N)=O)NC(=O)[C@H](CO)NC(=O)[C@@H](N)Cc1c[nH]cn1)[C@@H](C)O)[C@@H](C)O)C(=O)N[C@@H](CC(=O)O)C(=O)N[C@@H](CO)C(=O)N[C@@H](CCCCN)C(=O)N[C@@H](CCCNC(=N)N)C(=O)N[C@@H](C)C(=O)N[C@@H](Cc1c[nH]cn1)C(=O)N[C@@H](CC(=O)O)C(=O)N[C@@H](Cc1ccccc1)C(=O)N[C@H](C(=O)N[C@@H](CCC(N)=O)C(=O)N[C@@H](Cc1c[nH]c2ccccc12)C(=O)N[C@@H](CC(C)C)C(=O)N[C@@H](CC(C)C)C(=O)N[C@@H](CC(N)=O)C(=O)N[C@H](C(N)=O)[C@@H](C)O)C(C)C [Peptide 24] (H-HSQGTFTSDYSKYLDSKRAHDFVQWLLNT-NH2) |
| 0.029 ± 0.001 | > 200 |  |  |  | CSCC[C@H](NC(=O)[C@H](CC(C)C)NC(=O)[C@H](Cc1c[nH]c2ccccc12)NC(=O)[C@H](CCC(N)=O)NC(=O)[C@@H](NC(=O)[C@H](Cc1ccccc1)NC(=O)[C@H](CC(=O)O)NC(=O)[C@H](CCC(N)=O)NC(=O)[C@H](C)NC(=O)[C@H](CCCNC(=N)N)NC(=O)[C@H](CCCNC(=N)N)NC(=O)[C@H](CO)NC(=O)[C@H](CC(=O)O)NC(=O)[C@H](CC(C)C)NC(=O)[C@H](Cc1c[nH]c2ccccc12)NC(=O)[C@H](Cc1c[nH]cn1)NC(=O)[C@H](CO)NC(=O)[C@H](Cc1ccc(O)cc1)NC(=O)[C@H](CC(=O)O)NC(=O)[C@H](CO)NC(=O)[C@H](Cc1ccccc1)NC(=O)[C@H](Cc1ccccc1)NC(=O)[C@@H](NC(=O)CNC(=O)[C@H](CCC(N)=O)NC(=O)[C@H](CO)NC(=O)[C@@H](N)Cc1c[nH]cn1)[C@@H](C)O)C(C)C)C(=O)N[C@@H](CC(N)=O)C(=O)N[C@H](C(N)=O)[C@@H](C)O [Peptide 22] |
| > 20 | > 20 | did not activate |  |  | CC[C@H](C)[C@H](NC(=O)[C@H](Cc1c[nH]c2ccccc12)NC(=O)[C@H](Cc1ccccc1)NC(=O)[C@H](CC(=O)O)NC(=O)[C@H](CCC(N)=O)NC(=O)[C@H](C)NC(=O)[C@H](CCCNC(=N)N)NC(=O)[C@H](CCCNC(=N)N)NC(=O)[C@H](CO)NC(=O)[C@H](CC(=O)O)NC(=O)[C@H](CC(C)C)NC(=O)[C@H](Cc1ccc(O)cc1)NC(=O)[C@H](CCCCN)NC(=O)[C@H](CO)NC(=O)[C@H](Cc1ccc(O)cc1)NC(=O)[C@H](CC(=O)O)NC(=O)[C@H](CO)NC(=O)[C@@H](NC(=O)[C@H](Cc1ccccc1)NC(=O)[C@@H](NC(=O)CNC(=O)[C@H](CCC(N)=O)NC(=O)[C@H](CO)NC(=O)[C@@H](N)Cc1c[nH]cn1)[C@@H](C)O)[C@@H](C)O)C(=O)N[C@@H](CC(=O)O)C(=O)N[C@@H](CC(C)C)C(=O)N[C@@H](CCSC)C(=O)N[C@@H](CC(N)=O)C(=O)N[C@H](C(N)=O)[C@@H](C)O [Peptide 25] |
|  |  |  | 0.037 ± 0.004 | 23.5 ± 7.6 | CCCCCCCCCCCCCCCC(=O)N[C@@H](CCC(=O)N[C@@H](CCC(=O)NCCCC[C@H](NC(=O)[C@H](CC(=O)O)NC(=O)[C@H](CO)NC(=O)[C@H](CC(C)C)NC(=O)[C@H](Cc1ccccc1)NC(=O)[C@@H](NC(=O)CNC(=O)[C@H](CCC(N)=O)NC(=O)[C@@H](CO)NC(=O)[C@@H](N)Cc1c[nH]cn1)[C@@H](C)O)C(=O)N[C@@H](CO)C(=O)N[C@@H](CCCCN)C(=O)N[C@@H](CC(C)C)C(=O)N[C@@H](CC(C)C)C(=O)N[C@@H](CC(=O)O)C(=O)N[C@@H](CO)C(=O)N[C@@H](CCCNC(=N)N)C(=O)N[C@@H](CCCNC(=N)N)C(=O)N[C@@H](C)C(=O)N[C@@H](CCC(N)=O)C(=O)N[C@@H](CC(=O)O)C(=O)N[C@@H](Cc1ccccc1)C(=O)N[C@H](C(=O)N[C@@H](CCC(N)=O)C(=O)N[C@@H](Cc1c[nH]c2ccccc12)C(=O)N[C@@H](CC(C)C)C(=O)N[C@@H](CCSC)C(=O)N[C@@H](CCC(N)=O)C(=O)N[C@H](C(N)=O)[C@@H](C)O)C(C)C)C(=O)O)C(=O)O [Peptide 37] (H-H[dS]QGTFLSDK([γGlu-γGlu-Palmitoyl])SKLLDSRRAQDFVQWLMQT-NH2; N-terminus assumed) |
| 1.35 ± 0.173 | 0.427 ± 0.022 |  |  |  | CSCC[C@H](NC(=O)[C@H](CC(C)C)NC(=O)[C@H](Cc1c[nH]c2ccccc12)NC(=O)[C@H](CCC(N)=O)NC(=O)[C@@H](NC(=O)[C@H](Cc1ccccc1)NC(=O)[C@H](CC(=O)O)NC(=O)[C@H](Cc1c[nH]c2ccccc12)NC(=O)[C@H](C)NC(=O)[C@H](C)NC(=O)[C@H](CCCNC(=N)N)NC(=O)[C@H](CCC(=O)O)NC(=O)[C@H](CC(=O)O)NC(=O)[C@H](CC(C)C)NC(=O)[C@H](Cc1ccc(O)cc1)NC(=O)[C@H](CCCCN)NC(=O)[C@H](CCCNC(=N)N)NC(=O)[C@H](Cc1ccc(O)cc1)NC(=O)[C@H](CC(=O)O)NC(=O)[C@H](CO)NC(=O)[C@@H](NC(=O)[C@H](Cc1ccccc1)NC(=O)[C@@H](NC(=O)CNC(=O)[C@H](CCC(N)=O)NC(=O)[C@H](CO)NC(=O)[C@@H](N)Cc1c[nH]cn1)[C@@H](C)O)[C@@H](C)O)C(C)C)C(=O)N[C@@H](CC(N)=O)C(=O)N[C@H](C(N)=O)[C@@H](C)O [Peptide 3] (H-HSQGTFTSDYRKYLDERAAWDFVQWLMNT-NH2) |
| 0.527 ± 0.315 | > 200 |  |  |  | CSCC[C@H](NC(=O)[C@H](CC(C)C)NC(=O)[C@H](Cc1c[nH]c2ccccc12)NC(=O)[C@H](CCC(N)=O)NC(=O)[C@@H](NC(=O)[C@H](Cc1ccccc1)NC(=O)[C@H](CC(=O)O)NC(=O)[C@H](CCC(N)=O)NC(=O)[C@H](C)NC(=O)[C@H](CCCNC(=N)N)NC(=O)[C@H](CCCNC(=N)N)NC(=O)[C@H](CO)NC(=O)[C@H](CC(=O)O)NC(=O)[C@H](CC(C)C)NC(=O)[C@H](Cc1ccc(O)cc1)NC(=O)[C@H](Cc1ccc(O)cc1)NC(=O)[C@H](Cc1ccc(O)cc1)NC(=O)[C@H](Cc1ccc(O)cc1)NC(=O)[C@H](CC(=O)O)NC(=O)[C@H](Cc1c[nH]cn1)NC(=O)[C@H](CC(C)C)NC(=O)[C@H](Cc1ccccc1)NC(=O)[C@@H](NC(=O)CNC(=O)[C@H](CCC(N)=O)NC(=O)[C@H](CO)NC(=O)[C@@H](N)Cc1c[nH]cn1)[C@@H](C)O)C(C)C)C(=O)N[C@@H](CC(=O)O)C(=O)N[C@H](C(N)=O)[C@@H](C)O [Peptide 17] (H-HSQGTFLHDYYYYLDSRRAQDFVQWLMDT-NH2) |
| 0.026 ± 0.004 | > 200 |  |  |  | CC[C@H](C)[C@H](NC(=O)CNC(=O)[C@H](CCC(N)=O)NC(=O)[C@H](CO)NC(=O)[C@@H](N)Cc1c[nH]cn1)C(=O)N[C@@H](Cc1ccccc1)C(=O)N[C@@H](Cc1ccccc1)C(=O)N[C@@H](CO)C(=O)N[C@@H](CC(=O)O)C(=O)N[C@@H](Cc1ccc(O)cc1)C(=O)N[C@@H](CO)C(=O)N[C@@H](CCCCN)C(=O)N[C@@H](Cc1ccc(O)cc1)C(=O)N[C@@H](CC(C)C)C(=O)N[C@@H](CC(=O)O)C(=O)N[C@@H](CO)C(=O)N[C@@H](CCCNC(=N)N)C(=O)N[C@@H](CCCNC(=N)N)C(=O)N[C@@H](C)C(=O)N[C@@H](CCC(N)=O)C(=O)N[C@@H](CC(=O)O)C(=O)N[C@@H](Cc1ccccc1)C(=O)N[C@H](C(=O)N[C@@H](CCC(N)=O)C(=O)N[C@@H](Cc1c[nH]c2ccccc12)C(=O)N[C@@H](CC(C)C)C(=O)N[C@@H](CCSC)C(=O)N[C@@H](CC(N)=O)C(=O)N[C@H](C(N)=O)[C@@H](C)O)C(C)C [Peptide 30] (H-HSQGIFFSDYSKYLDSRRAQDFVQWLMNT-NH2) |
| > 20 | > 200 | did not activate |  |  | CSCC[C@H](NC(=O)[C@H](CO)NC(=O)[C@H](C)N)C(=O)N[C@@H](Cc1ccccc1)C(=O)N[C@H](C(=O)N[C@@H](Cc1ccccc1)C(=O)N[C@@H](Cc1ccccc1)C(=O)N[C@@H](CO)C(=O)N[C@@H](CC(=O)O)C(=O)N[C@@H](Cc1ccc(O)cc1)C(=O)N[C@@H](CO)C(=O)N[C@@H](CCCCN)C(=O)N[C@@H](Cc1ccc(O)cc1)C(=O)N[C@@H](CC(C)C)C(=O)N[C@@H](CC(=O)O)C(=O)N[C@@H](CO)C(=O)N[C@@H](CCCNC(=N)N)C(=O)N[C@@H](CCCNC(=N)N)C(=O)N[C@@H](C)C(=O)N[C@@H](CCC(N)=O)C(=O)N[C@@H](CC(=O)O)C(=O)N[C@@H](Cc1ccccc1)C(=O)N[C@H](C(=O)N[C@@H](CCC(N)=O)C(=O)N[C@@H](Cc1c[nH]c2ccccc12)C(=O)N[C@@H](CC(C)C)C(=O)N[C@@H](CCSC)C(=O)N[C@@H](CC(C)C)C(=O)N[C@H](C(N)=O)[C@@H](C)O)C(C)C)[C@@H](C)O [Peptide 15] (H-ASMFTFFSDYSKYLDSRRAQDFVQWLMLT-NH2; N-terminus assumed) |
